# How the values were obtained:
# BT474 xenograft = assay: Tumour growth inhibition, BT474 xenograft model; assay type: in vivo, mouse
# Method: BT474 is an estrogen receptor positive breast tumour cell lines with elevated Her2 expression and carries a mutation in the PIK3CA gene (K111N). Female Swiss athymic nude mice (swiss nu/nu-AZUK) were transplanted subcutaneously with human epithelial breast ductal carcinoma cell line BT474c (derived in AZ from BT474-ATCC HTB-20) tumours passaged in mice. Mice were implanted with 0.36 mg 60 day oestrogen pellet (Innovative Research of America) 24 hours prior to cell implantation. 5×10^6 cells in 50% matrigel (BD Bioscience) were injected s.c. on the left flank of the animals.
# Animals were randomised into groups of 10-15 when tumours reached a volume of ˜200-300 mm^3 and treatment commenced. Animals were dosed for 3-4 weeks by peroral route, with compound in a suitable vehicle at defined doses and schedules. Tumours were measured two-three times weekly by caliper and volume of tumours calculated using elliptical formula (pi/6×width×width×length).
# RS411 = assay: Cell proliferation assay (MTS); assay type: cell-based, human
# Method: (§1) The sensitivity of a panel of human cancer cell lines to the effects of compounds was determined in a standard proliferation assay.
# (§2) Cells were plated in 96 well plates at densities of 1000-6000 cells per well in RPMI media containing 10% FBS. After incubation at 37° C. for 16 hours, various concentrations of compound were added to the assay plates. After incubation for an additional 72 h, the viable cells were determined by the addition of MTS reagent (Promega #3582) to each well for 2 h. MTS is a tetrazolium salt that is bioreduced by metabolically active cells in the presence of an electron coupling reagent to formazan. The formazan product was then quantitated by absorbance at 490 nm, as an indicator of the relative number of live cells. In order to determine the GI50 (concentration at which growth of cells was inhibited by 50%) the relative number of cells present at the time of drug addition was determined by comparison with the MTS readout before the drug was added, and this value was subtracted from the 72 hr value of untreated cells as a measure of cell growth during the assay.
# MCF7 = assay: Cell proliferation assay (MTS); assay type: cell-based, human
# Method: as §1, §2
# SNU601 = assay: Cell proliferation assay (MTS); assay type: cell-based, human
# Method: (§3) The sensitivity of a panel of human cancer cell lines to the effects of compounds was determined in a standard proliferation assay. Cell lines were sourced through the AstraZeneca Cell Bank.
# as §2
# […] = Cell proliferation assay (MTS); assay type: cell-based, human
# Method: as §1, §2
# PANC0203 = assay: Cell proliferation assay (MTS); assay type: cell-based, human
# Method: as §1
# (§4) Cells were plated in 96 well plates at densities of 1000-6000 cells per well in RPMI media containing 10% FBS. After incubation at 37° C. for 16 hours, various concentrations of compound were added to the assay plates. After incubation for an additional 72 h, the viable cells were determined by the addition of MTS reagent (Promega #3582) to each well for 2 h. […] The formazan product was then quantitated by absorbance at 490 nm, as an indicator of the relative number of live cells. In order to determine the GI50 (concentration at which growth of cells was inhibited by 50%) the relative number of cells present at the time of drug addition was determined by comparison with the MTS readout before the drug was added, and this value was subtracted from the 72 hr value of untreated cells as a measure of cell growth during the assay.
# REH = assay: Cell proliferation assay (MTS); assay type: cell-based, human
# Method: as §1, §4
# OVCAR3 = assay: Cell proliferation assay (MTS); assay type: cell-based, human
# Method: as §1, §2
# MOLM13 = assay: Cell proliferation assay (MTS); assay type: cell-based, human
# Method: as §1, §2
# 2313287 = assay: Cell proliferation assay (MTS); assay type: cell-based, human
# Method: as §3, §4
# SNU368 = assay: Cell proliferation assay (MTS); assay type: cell-based, human
# Method: as §1, §2
# NOMO1 = assay: Cell proliferation assay (MTS); assay type: cell-based, human
# Method: as §1, §2
# HCT8 = assay: Cell proliferation assay (MTS); assay type: cell-based, human
# Method: as §3, §2
# SW403 = assay: Cell proliferation assay (MTS); assay type: cell-based, human
# Method: as §1, §2
# H2291 = assay: Cell proliferation assay (MTS); assay type: cell-based, human
# Method: as §3, §2
# DMS114 = assay: Cell proliferation assay (MTS); assay type: cell-based, human
# Method: as §3, §2
# CFPAC1 = assay: Cell proliferation assay (MTS); assay type: cell-based, human
# Method: as §3, §2
# ZR751 = assay: Cell proliferation assay (MTS); assay type: cell-based, human
# Method: as §3, §2
# SNU449 = assay: Cell proliferation assay (MTS); assay type: cell-based, human
# Method: as §1, §4
# HT29 = assay: Cell proliferation assay (MTS); assay type: cell-based, human
# Method: as §1, §4
# HEP3B = assay: Cell proliferation assay (MTS); assay type: cell-based, human
# Method: as §1, §2
# SNU638 = assay: Cell proliferation assay (MTS); assay type: cell-based, human
# Method: as §3, §2
# KATOIII = assay: Cell proliferation assay (MTS); assay type: cell-based, human
# Method: as §1, §4
# H226 = assay: Cell proliferation assay (MTS); assay type: cell-based, human
# Method: as §1, §2
# H2126 = assay: Cell proliferation assay (MTS); assay type: cell-based, human
# Method: as §3, §2
# J82 = assay: Cell proliferation assay (MTS); assay type: cell-based, human
# Method: as §1, §4
# KP4 = assay: Cell proliferation assay (MTS); assay type: cell-based, human
# Method: as §3, §2
# SNU668 = assay: Cell proliferation assay (MTS); assay type: cell-based, human
# Method: as §1, §4
# SW480 = assay: Cell proliferation assay (MTS); assay type: cell-based, human
# Method: as §1, §4
# SNU878 = assay: Cell proliferation assay (MTS); assay type: cell-based, human
# Method: as §1, §2
# HCC1806 = assay: Cell proliferation assay (MTS); assay type: cell-based, human
# Method: as §1, §2
# SNU16 = assay: Cell proliferation assay (MTS); assay type: cell-based, human
# Method: as §1, §2
# HCC15 = assay: Cell proliferation assay (MTS); assay type: cell-based, human
# Method: as §1, §2
# HCT116 = assay: Cell proliferation assay (MTS); assay type: cell-based, human
# Method: as §1, §2
# HEPG2 = assay: Cell proliferation assay (MTS); assay type: cell-based, human
# Method: as §3, §2
# JJN3 = assay: Cell proliferation assay (MTS); assay type: cell-based, human
# Method: as §1, §2
# T24 = assay: Cell proliferation assay (MTS); assay type: cell-based, human
# Method: as §3, §2
# [1] = Homo sapiens, Stomach, PIK3CA WT
smiles,measurement,setting,value
"CCn1nc(C2CCN(C(=O)CCO)CC2)nc1-c1cnc(N)c(-c2nnc(C(C)(C)C)o2)n1 [Example 3, 1-(4-(5-(5-amino-6-(5-tert-butyl-1,3,4-oxadiazol-2-yl)pyrazin-2-yl)-1-ethyl-1H-1,2,4-triazol-3-yl)piperidin-1-yl)-3-hydroxypropan-1-one]",tumour growth,"BT474 xenograft; Example 3 alone 25 mg/kg BID every day, FIG. 11",partially inhibited growth
same,tumour growth,"BT474 xenograft; Example 3 alone 25 mg/kg BID, 2 days on/5 days off, vs vehicle, FIG. 10",partially inhibited tumour growth
same,tumour growth,"BT474 xenograft; Example 3 alone 50 mg/kg BID, 2 days on/5 days off, vs vehicle, FIG. 9",partially inhibited tumour growth
same,Category,RS411,Sensitive (sensitive (GI50<=1.0 μM))
same,GI50,"RS411; Homo sapiens, RS4-11, Blood/lymph, PIK3CA WT",0.0903 µM
same,Category,MCF7,Sensitive (sensitive (GI50<=1.0 μM))
same,GI50,"MCF7; Homo sapiens, Breast, PIK3CA MUT",0.309 µM
same,Category,SNU601,Sensitive (sensitive (GI50<=1.0 μM))
same,GI50,"SNU601; Homo sapiens, SNU-601, Stomach, PIK3CA MUT",0.506 µM
same,GI50,[…]; Homo sapiens,0.792 µM
same,Category,[…]; […],Sensitive (sensitive (GI50<=1.0 μM))
same,Category,PANC0203,Sensitive (sensitive (GI50<=1.0 μM))
same,GI50,"PANC0203; Homo sapiens, Panc 02.03, Pancreas, PIK3CA WT",0.963 µM
same,Category,REH,Resistant (resistant (GI50>1.0 μM))
same,GI50,"REH; Homo sapiens, Blood/lymph, PIK3CA WT",1.05 µM
same,Category,OVCAR3,Resistant (resistant (GI50>1.0 μM))
same,GI50,"OVCAR3; Homo sapiens, OVCAR-3, Ovary, PIK3CA WT",1.18 µM
same,Category,MOLM13,Resistant (resistant (GI50>1.0 μM))
same,GI50,"MOLM13; Homo sapiens, MOLM-13, Blood/lymph, PIK3CA WT",1.22 µM
same,Category,2313287,Resistant (resistant (GI50>1.0 μM))
same,GI50,2313287; [1],1.34 µM
same,Category,SNU368,Resistant (resistant (GI50>1.0 μM))
same,GI50,"SNU368; Homo sapiens, Liver, PIK3CA WT",1.6 µM
same,Category,NOMO1,Resistant (resistant (GI50>1.0 μM))
same,GI50,"NOMO1; Homo sapiens, NOMO-1, Blood/lymph, PIK3CA WT",2.17 µM
same,Category,HCT8,Resistant (resistant (GI50>1.0 μM))
same,GI50,"HCT8; Homo sapiens, HCT-8, Colon, PIK3CA MUT",2.51 µM
same,Category,SW403,Resistant (resistant (GI50>1.0 μM))
same,GI50,"SW403; Homo sapiens, SW-403, Colon, PIK3CA MUT",2.61 µM
same,Category,H2291,Resistant (resistant (GI50>1.0 μM))
same,GI50,"H2291; Homo sapiens, NCI-H2291, Lung, PIK3CA WT",3.29 µM
same,Category,DMS114,Resistant (resistant (GI50>1.0 μM))
same,GI50,"DMS114; Homo sapiens, DMS-114, Lung, PIK3CA WT",3.29 µM
same,Category,CFPAC1,Resistant (resistant (GI50>1.0 μM))
same,GI50,"CFPAC1; Homo sapiens, CFPAC-1, Pancreas, PIK3CA WT",3.38 µM
same,Category,ZR751,Resistant (resistant (GI50>1.0 μM))
same,GI50,"ZR751; Homo sapiens, ZR-75-1, Breast, PIK3CA WT",3.56 µM
same,Category,SNU449,Resistant (resistant (GI50>1.0 μM))
same,GI50,"SNU449; Homo sapiens, SNU-449, Liver, PIK3CA WT",5.41 µM
same,Category,HT29,Resistant (resistant (GI50>1.0 μM))
same,GI50,"HT29; Homo sapiens, HT-29, Colon, PIK3CA MUT",5.48 µM
same,Category,HEP3B,Resistant (resistant (GI50>1.0 μM))
same,GI50,"HEP3B; Homo sapiens, Liver, PIK3CA WT",6.69 µM
same,Category,SNU638,Resistant (resistant (GI50>1.0 μM))
same,GI50,"SNU638; Homo sapiens, SNU-638, Stomach, PIK3CA WT",8.22 µM
same,Category,KATOIII,Resistant (resistant (GI50>1.0 μM))
same,GI50,"KATOIII; Homo sapiens, KATO III, Stomach, PIK3CA WT",9.15 µM
same,Category,H226,Resistant (resistant (GI50>1.0 μM))
same,GI50,"H226; Homo sapiens, NCI-H226, Lung, PIK3CA WT",10.1 µM
same,Category,H2126,Resistant (resistant (GI50>1.0 μM))
same,GI50,"H2126; Homo sapiens, NCI-H2126, Lung, PIK3CA WT",12.9 µM
same,Category,J82,Resistant (resistant (GI50>1.0 μM))
same,GI50,"J82; Homo sapiens, Bladder, PIK3CA MUT",13.4 µM
same,Category,KP4,Resistant (resistant (GI50>1.0 μM))
same,GI50,"KP4; Homo sapiens, KP-4, Pancreas, PIK3CA WT",15.1 µM
same,Category,SNU668,Resistant (resistant (GI50>1.0 μM))
same,GI50,SNU668; [1],15.5 µM
same,Category,SW480,Resistant (resistant (GI50>1.0 μM))
same,GI50,"SW480; Homo sapiens, Colon, PIK3CA WT",15.9 µM
same,Category,SNU878,Resistant (resistant (GI50>1.0 μM))
same,GI50,"SNU878; Homo sapiens, Liver, PIK3CA WT",16.1 µM
same,Category,HCC1806,Resistant (resistant (GI50>1.0 μM))
same,GI50,"HCC1806; Homo sapiens, Breast, PIK3CA WT",16.7 µM
same,Category,SNU16,Resistant (resistant (GI50>1.0 μM))
same,GI50,"SNU16; Homo sapiens, SNU-16, Stomach, PIK3CA WT",16.8 µM
same,Category,HCC15,Resistant (resistant (GI50>1.0 μM))
same,GI50,"HCC15; Homo sapiens, Lung, PIK3CA WT",30 µM
same,Category,HCT116,Resistant (resistant (GI50>1.0 μM))
same,GI50,"HCT116; Homo sapiens, HCT-116, Colon, PIK3CA MUT",30 µM
same,Category,HEPG2,Resistant (resistant (GI50>1.0 μM))
same,GI50,"HEPG2; Homo sapiens, Liver, PIK3CA WT",30 µM
same,Category,JJN3,Resistant (resistant (GI50>1.0 μM))
same,GI50,"JJN3; Homo sapiens, JJN-3, Blood/lymph, PIK3CA WT",30 µM
same,Category,T24,Resistant (resistant (GI50>1.0 μM))
same,GI50,"T24; Homo sapiens, T-24, Bladder, PIK3CA WT",30 µM
